The results in this text go back to patent US5473096A, “Substituted benzoate derivatives” (Shionogi & Co., Ltd., priority 1992, dated 1995).

In this assay the target is T1, PLA2 (phospholipase A2) from rat platelets (Rattus norvegicus, UniProt P14423).
T1 construct: from tissue; host or cells: rat platelets
T1 sequence (P14423 22-146): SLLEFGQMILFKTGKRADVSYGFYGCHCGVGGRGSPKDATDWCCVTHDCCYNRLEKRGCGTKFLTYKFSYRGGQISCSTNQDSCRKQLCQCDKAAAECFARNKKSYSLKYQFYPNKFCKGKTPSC
The assay is described as follows: Phospholipase A2 inhibitory activity (release of free fatty acid from 14C-labelled phosphatidylethanolamine). Format: biochemical. The settings on record: rat platelet PLA2; Tris-buffer 0.1M, pH 7.4; CaCl2 3 mM; 37° C., 20 minutes. The procedure:
The compounds of the present invention were tested for their Phospholipase A2 inhibitory activity by the following procedure.
1-Palmitoyl-2-[1-^14 C]-linoleoyl L-3-Phosphatidylethanolamine (Amersham, Inc., 59 mCi/mmol) were diluted with L-α-phosphatidylethanolamine (Sigma, Co., from […]) [2,000 dpm/nmol], and the dilution was sonicated. The resultant dilution was used as a substrate. The PLA2 (phospholipase A2) which was used in the test was from rat platelets. The PLA2 and the substrate preparation were added to a solution of CaCl2 (3 mM)in Tris-buffer (0.1M, pH 7.4), and the mixture was allowed to react at 37° C. for 20 minutes. Then, the reaction was terminated by adding 1.25 ml of Dole's reagent to the reaction mixture and stirring immediately the resultant mixture. To the mixture was added 0.5 ml of distilled water and 0.8 ml of n-heptane, and the mixture was stirred, centrifuged, and the resulting supernatant was taken into another tube. To this supernatant were added additional 0.8 ml of n-heptane and silica gel, and the mixture was stirred, centrifuged, and then the supernatant was taken into vials. Toluene cocktails were added to the vials. The amount of free fatty acid released from PLA2 (DPM value) was determined using liquid scintillation counter.
Inhibitory activity (%) was estimated by the formula: [(DPM value at the addition of the inhibitor-DPM value without PLA2)/(DPM value with only PLA2 -DPM value without PLA2)]×100.

The structures appear in SMILES notation.

What is called IC50 is the midpoint of a concentration-inhibition curve. The low end stands for greater potency, the high end for weaker potency. Consider `COc1c(C)c(OC(=O)c2c(C)c(C)c(OC(=O)c3c(C)c(CNCC(=O)OCc4ccccc4)c(O)c(C)c3O)c(C)c2OC)c(C)c(C)c1C(=O)O` [Compound 1a, 4-[4'-(4"-Carboxy-3"-methoxy-2",5",6"-trimethylphenoxycarbony)-3'-methoxy-2',5',6'-trimethylphenoxycarbonyl]-2,5-dimethyl-6-benzyloxyglycylmethylresorcinol], for which 0.026 µM corresponded to half-maximal inhibition (IC50).

`CCOC(=O)CNCc1c(C)c(C(=O)Oc2c(C)c(C)c(C(=O)Oc3c(C)c(C)c(C(=O)O)c(OC)c3C)c(OC)c2C)c(O)c(C)c1O` [Compound 1b] showed an IC50 of 0.17 µM.

In turn, `COc1ccc(CCOCc2c(C)c(C(=O)Oc3c(C)c(C)c(C(=O)Oc4c(C)c(C)c(C(=O)O)c(OC)c4C)c(OC)c3C)c(O)c(C)c2O)cc1` [Compound 1c] displayed an IC50 of 0.16 µM.

In the case of `CCCCOCc1c(C)c(C(=O)Oc2c(C)c(C)c(C(=O)Oc3c(C)c(C)c(C(=O)O)c(OC)c3C)c(OC)c2C)c(O)c(C)c1O` [Compound 1d], 0.12 µM corresponded to half-maximal inhibition (IC50).

Turning to `COc1c(C)c(OC(=O)c2c(C)c(C)c(OC(=O)c3c(C)c(CNCCCCC(NC(=O)OCc4ccccc4)C(N)=O)c(O)c(C)c3O)c(C)c2OC)c(C)c(C)c1C(=O)O` (stereo not drawn) [Compound 1e], the IC50 amounted to 1.1 µM.

`COc1c(C)c(OC(=O)c2c(C)c(C)c(OC(=O)c3c(C)c(CO)c(O)c(C)c3O)c(C)c2OC)c(C)c(C)c1C(=O)O` [Compound 1f] showed an IC50 of 0.38 µM.

`COCc1c(C)c(C(=O)Oc2c(C)c(C)c(C(=O)Oc3c(C)c(C)c(C(=O)O)c(OC)c3C)c(OC)c2C)c(O)c(C)c1O` [Compound 1g]: half-maximal inhibition (IC50) required 0.34 µM.

In turn, `COCc1c(C)c(C(=O)Oc2c(C)c(C)c(C(=O)O)c(OC)c2C)c(OC)c(C)c1O` [Compound 1i] registered an IC50 of 3.9 µM.

Consider `COc1c(C)c(OC(=O)c2c(C)c(C)c(OC(=O)c3c(C)c(CN[C@H](C)c4ccccc4)c(O)c(C)c3O)c(C)c2OC)c(C)c(C)c1C(=O)O` [Compound 6b, 4-[4'-[5"-(Sec-phenethylaminomethyl)-2",4"-dihydroxy-3",6"-dimethylphenylcarboxy]-2'-methoxy-3',5',6'-trimethyl]phenylcarboxy-2-methoxy-3,5,6-trimethyl benzoic acid], for which the IC50 came out at 0.3 µM.
